The test concerns the target T1, human protease activated receptor 1 (PAR-1) (Homo sapiens, UniProt P25116).
T1 construct: the cell stably expresses the endogenous human PAR-1 receptor; endogenous in cells; host or cells: HEK293-derived recombinant cell line that constitutively expresses mitochondrial aequorin
T1 sequence (P25116 22-425): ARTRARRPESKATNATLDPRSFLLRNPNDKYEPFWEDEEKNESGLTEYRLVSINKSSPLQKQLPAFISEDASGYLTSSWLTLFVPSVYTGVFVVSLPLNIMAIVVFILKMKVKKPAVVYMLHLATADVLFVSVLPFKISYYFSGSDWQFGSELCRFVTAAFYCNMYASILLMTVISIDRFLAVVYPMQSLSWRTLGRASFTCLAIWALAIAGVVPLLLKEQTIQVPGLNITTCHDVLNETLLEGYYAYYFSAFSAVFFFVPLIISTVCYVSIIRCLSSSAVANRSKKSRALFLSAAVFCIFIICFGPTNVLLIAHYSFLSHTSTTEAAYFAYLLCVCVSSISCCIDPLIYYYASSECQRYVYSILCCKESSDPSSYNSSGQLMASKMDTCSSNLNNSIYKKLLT
As to the kind of experiment: Cellular functional in vitro test (aequorin luminescence, PAR-1 test cell). It counts as cell-based. To be noted: recombinant HEK293-derived cell line expressing aequorin; PAR-1 agonist at EC50; calcium-dependent luminescence. From the text: 1.a) Cellular Functional In Vitro Test
A recombinant cell line is used to identify antagonists of the human protease activated receptor 1 (PAR-1) and to quantify the activity of the substances described herein. The cell is originally derived from a human embryonal kidney cell (HEK293; ATCC: American Type Culture Collection, Manassas, Va. 20108, USA). The test cell line constitutively expresses a modified form of the calcium-sensitive photoprotein acquorin which, after reconstitution with the cofactor coelenterazine, emits light when the free calcium concentration in the inner mitochondrial compartment is increased (Rizzuto R, Simpson A W, Brini M, Pozzan T.; Nature 1992, 358, 325-327). Additionally, the cell stably expresses the endogenous human PAR-1 receptor and the endogenous purinergic receptor P2Y2. The resulting PAR-1 test cell responds to stimulation of the endogenous PAR-1 or P2Y2 receptor with an intracellular release of calcium ions, which can be quantified through the resulting acquorin luminescence with a suitable luminometer (Milligan G, Marshall F, Rees S, Trends in Pharmacological Sciences 1996, 17, 235-237). […]
Test procedure: The cells are plated out two days (48 h) before the test in culture medium (DMEM F12, supplemented with 10% FCS, 2 mM glutamine, 20 mM HEPES, 1.4 mM pyruvate, 0.1 mg/ml gentamycin, 0.15% Na bicarbonate; BioWhittaker Cat.#BE04-687Q; B-4800 Verviers, Belgium) in 384-well microtitre plates and kept in a cell incubator (96% atmospheric humidity, 5% v/v CO2, 37° C.). […] The test substances are then pipetted onto the microtitre plate, and 5 minutes after the transfer of the test substances into the wells of the microtitre plate the plate is transferred into the luminometer, a PAR-1 agonist concentration which corresponds to EC50 is added and the resulting light signal is immediately measured in the luminometer. To distinguish an antagonist substance action from a toxic action, the endogenous purinergic receptor is immediately subsequently activated with agonist (ATP, final concentration 10 μM) and the resulting light signal is measured.
For orientation: IC50 means the concentration at which inhibition is half-maximal. On to `O=C(N1CCOCC1)N1CC(/C=C/c2ccc(-c3cccc(Cl)c3)cn2)CC(c2ccc(C(F)(F)F)cc2)C1` (racemic) [Example 9, (3-{(E)-2-[5-(3-Chlorophenyl)pyridin-2-yl]vinyl}-5-[4-(trifluoromethyl)phenyl]piperidin-1-yl)-(morpholin-4-yl)methanone], for which the IC50 worked out at 2.2 nM.

`O=C(N1CCOCC1)N1CC(/C=C/c2ccc(-c3cccc(C(F)(F)F)c3)cn2)CC(c2ccc(C(F)(F)F)cc2)C1` (single isomer, unassigned) [Example 5, Morpholin-4-yl{3-[4-(trifluoromethyl)phenyl]-5-[(E)-2-{5-[3-(trifluoromethyl)phenyl]pyridin-2-yl}vinyl]piperidin-1-yl}methanone]: the IC50 is 2 nM.

`COc1ccccc1-c1ccc(/C=C/C2CC(c3ccc(C(F)(F)F)cc3)CN(C(=O)N3CCOCC3)C2)nc1` (racemic) [Example 7, (3-{(E)-2-[5-(2-Methoxyphenyl)pyridin-2-yl]vinyl}-5-[4-(trifluoromethyl)phenyl]piperidin-1-yl)-(morpholin-4-yl)methanone]: the IC50 is 1.9 nM.

These data come from patent US20120142690A1, “Substituted piperidines” (BAYER PHARMA AKTIENGESELLSCHAFT, priority 2009, published 2012).
